Reference: PubChem BioAssay (NCI)
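Exposure lasted 48 hours, with cells grown in 96-well plates and compounds tested at five concentrations. GI50 = concentration required for 50% inhibition of growth. The concentration for full growth arrest is given as TGI.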

Tests used:
Test in all cases: growth of human tumour cells (NCI), 48 h
RXF 393 renal = test system: RXF 393 renal
NCI-H226 lung = test system: NCI-H226 lung
A549 NSCLC = test system: A549 NSCLC
KM20L2 colon = test system: KM20L2 colon
786-0 renal = test system: 786-0 renal
LXFL 529 NSCLC = test system: LXFL 529 NSCLC
SF-539 CNS = test system: SF-539 CNS
HCC-2998 colon = test system: HCC-2998 colon
RXF-631 renal = test system: RXF-631 renal
SF-295 CNS = test system: SF-295 CNS
SK-MEL-2 melanoma = test system: SK-MEL-2 melanoma
HCT-15 colon = test system: HCT-15 colon
OVCAR-3 ovarian = test system: OVCAR-3 ovarian
HL-60(TB) leukemia = test system: HL-60(TB) leukemia
DLD-1 colon = test system: DLD-1 colon
M19-MEL melanoma = test system: M19-MEL melanoma
OVCAR-4 ovarian = test system: OVCAR-4 ovarian
LOX IMVI melanoma = test system: LOX IMVI melanoma
SK-MEL-5 melanoma = test system: SK-MEL-5 melanoma
NCI-H460 lung = test system: NCI-H460 lung
SNB-78 CNS = test system: SNB-78 CNS
UO-31 renal = test system: UO-31 renal
COLO 205 colon = test system: COLO 205 colon
NCI-H23 lung = test system: NCI-H23 lung
K-562 leukemia = test system: K-562 leukemia
DMS 114 small cell lung = test system: DMS 114 small cell lung
SR leukemia = test system: SR leukemia
CAKI-1 renal = test system: CAKI-1 renal
HCT-116 colon = test system: HCT-116 colon
UACC-257 melanoma = test system: UACC-257 melanoma
SN12C renal = test system: SN12C renal
HOP-92 NSCLC = test system: HOP-92 NSCLC
OVCAR-8 ovarian = test system: OVCAR-8 ovarian
EKVX NSCLC = test system: EKVX NSCLC
HOP-62 NSCLC = test system: HOP-62 NSCLC
TK-10 renal = test system: TK-10 renal
KM12 colon = test system: KM12 colon
RPMI-8226 leukemia = test system: RPMI-8226 leukemia
U251 CNS = test system: U251 CNS
HOP-18 NSCLC = test system: HOP-18 NSCLC
SNB-19 CNS = test system: SNB-19 CNS
XF 498 CNS = test system: XF 498 CNS
M14 melanoma = test system: M14 melanoma
CCRF-CEM leukemia = test system: CCRF-CEM leukemia
SF-268 CNS = test system: SF-268 CNS
MOLT-4 leukemia = test system: MOLT-4 leukemia
SW-620 colon = test system: SW-620 colon
IGROV1 ovarian = test system: IGROV1 ovarian
ACHN renal = test system: ACHN renal
UACC-62 melanoma = test system: UACC-62 melanoma
HT29 colon = test system: HT29 colon
OVCAR-5 ovarian = test system: OVCAR-5 ovarian
SK-OV-3 ovarian = test system: SK-OV-3 ovarian
MALME-3M melanoma = test system: MALME-3M melanoma
A498 renal = test system: A498 renal
DMS 273 small cell lung = test system: DMS 273 small cell lung
SK-MEL-28 melanoma = test system: SK-MEL-28 melanoma
NCI-H522 lung = test system: NCI-H522 lung
SNB-75 CNS = test system: SNB-75 CNS

[C-]#[O+].[C-]#[O+].[C-]#[O+].[C-]#[O+].[Ir].[Ir].[O-]c1ccc2ccccc2c1C=Nc1ccc(N=Cc2c([O-])ccc3ccccc23)cc1
GI50 (RXF 393 renal): > 100 µM | TGI (RXF 393 renal): > 100 µM | GI50 (NCI-H226 lung): > 100 µM | TGI (NCI-H226 lung): > 100 µM | GI50 (A549 NSCLC): > 100 µM | TGI (A549 NSCLC): > 100 µM | GI50 (KM20L2 colon): 59.2 µM | TGI (KM20L2 colon): > 100 µM | GI50 (786-0 renal): 46.3 µM | TGI (786-0 renal): > 100 µM | GI50 (LXFL 529 NSCLC): > 100 µM | TGI (LXFL 529 NSCLC): > 100 µM | GI50 (SF-539 CNS): > 100 µM | TGI (SF-539 CNS): > 100 µM | GI50 (HCC-2998 colon): > 100 µM | TGI (HCC-2998 colon): > 100 µM | GI50 (RXF-631 renal): > 100 µM | TGI (RXF-631 renal): > 100 µM | GI50 (SF-295 CNS): > 100 µM | TGI (SF-295 CNS): > 100 µM | GI50 (SK-MEL-2 melanoma): > 100 µM | TGI (SK-MEL-2 melanoma): > 100 µM | GI50 (HCT-15 colon): > 100 µM | TGI (HCT-15 colon): > 100 µM | GI50 (OVCAR-3 ovarian): > 100 µM | TGI (OVCAR-3 ovarian): > 100 µM | GI50 (HL-60(TB) leukemia): 75.5 µM | TGI (HL-60(TB) leukemia): > 100 µM | GI50 (DLD-1 colon): > 100 µM | TGI (DLD-1 colon): > 100 µM | GI50 (M19-MEL melanoma): > 100 µM | TGI (M19-MEL melanoma): > 100 µM | GI50 (OVCAR-4 ovarian): > 100 µM | TGI (OVCAR-4 ovarian): > 100 µM | GI50 (LOX IMVI melanoma): > 100 µM | TGI (LOX IMVI melanoma): > 100 µM | GI50 (SK-MEL-5 melanoma): > 100 µM | TGI (SK-MEL-5 melanoma): > 100 µM | GI50 (NCI-H460 lung): > 100 µM | TGI (NCI-H460 lung): > 100 µM | GI50 (SNB-78 CNS): > 100 µM | TGI (SNB-78 CNS): > 100 µM | GI50 (UO-31 renal): > 100 µM | TGI (UO-31 renal): > 100 µM | GI50 (COLO 205 colon): > 100 µM | TGI (COLO 205 colon): > 100 µM | GI50 (NCI-H23 lung): > 100 µM | TGI (NCI-H23 lung): > 100 µM | GI50 (K-562 leukemia): 40.1 µM | TGI (K-562 leukemia): > 100 µM | GI50 (DMS 114 small cell lung): > 100 µM | TGI (DMS 114 small cell lung): > 100 µM | GI50 (SR leukemia): > 100 µM | TGI (SR leukemia): > 100 µM | GI50 (CAKI-1 renal): > 100 µM | TGI (CAKI-1 renal): > 100 µM | GI50 (HCT-116 colon): > 100 µM | TGI (HCT-116 colon): > 100 µM | GI50 (UACC-257 melanoma): > 100 µM | TGI (UACC-257 melanoma): > 100 µM | GI50 (SN12C renal): > 100 µM | TGI (SN12C renal): > 100 µM | GI50 (HOP-92 NSCLC): 40 µM | TGI (HOP-92 NSCLC): > 100 µM | GI50 (OVCAR-8 ovarian): > 100 µM | TGI (OVCAR-8 ovarian): > 100 µM | GI50 (EKVX NSCLC): > 100 µM | TGI (EKVX NSCLC): > 100 µM | GI50 (HOP-62 NSCLC): > 100 µM | TGI (HOP-62 NSCLC): > 100 µM | GI50 (TK-10 renal): > 100 µM | TGI (TK-10 renal): > 100 µM | GI50 (KM12 colon): > 100 µM | TGI (KM12 colon): > 100 µM | GI50 (RPMI-8226 leukemia): > 100 µM | TGI (RPMI-8226 leukemia): > 100 µM | GI50 (U251 CNS): > 100 µM | TGI (U251 CNS): > 100 µM | GI50 (HOP-18 NSCLC): > 100 µM | TGI (HOP-18 NSCLC): > 100 µM | GI50 (SNB-19 CNS): 63.6 µM | TGI (SNB-19 CNS): > 100 µM | GI50 (XF 498 CNS): > 100 µM | TGI (XF 498 CNS): > 100 µM | GI50 (M14 melanoma): > 100 µM | TGI (M14 melanoma): > 100 µM | GI50 (CCRF-CEM leukemia): 66 µM | TGI (CCRF-CEM leukemia): > 100 µM | GI50 (SF-268 CNS): > 100 µM | TGI (SF-268 CNS): > 100 µM | GI50 (MOLT-4 leukemia): 37.1 µM | TGI (MOLT-4 leukemia): > 100 µM | GI50 (SW-620 colon): > 100 µM | TGI (SW-620 colon): > 100 µM | GI50 (IGROV1 ovarian): > 100 µM | TGI (IGROV1 ovarian): > 100 µM | GI50 (ACHN renal): > 100 µM | TGI (ACHN renal): > 100 µM | GI50 (UACC-62 melanoma): > 100 µM | TGI (UACC-62 melanoma): > 100 µM | GI50 (HT29 colon): > 100 µM | TGI (HT29 colon): > 100 µM | GI50 (OVCAR-5 ovarian): > 100 µM | TGI (OVCAR-5 ovarian): > 100 µM | GI50 (SK-OV-3 ovarian): > 100 µM | TGI (SK-OV-3 ovarian): > 100 µM | GI50 (MALME-3M melanoma): > 100 µM | TGI (MALME-3M melanoma): > 100 µM

NNC(=O)CCC(=O)Nc1cc(Cl)c(Cl)cc1Cl
TGI (RXF 393 renal): > 100 µM | TGI (NCI-H226 lung): > 100 µM | TGI (A549 NSCLC): > 100 µM | TGI (KM20L2 colon): > 100 µM | TGI (786-0 renal): > 100 µM | TGI (LXFL 529 NSCLC): > 100 µM | TGI (SF-539 CNS): > 100 µM | TGI (HCC-2998 colon): > 100 µM | TGI (RXF-631 renal): > 100 µM | TGI (A498 renal): > 100 µM | TGI (SF-295 CNS): > 100 µM | TGI (SK-MEL-2 melanoma): > 100 µM | TGI (HCT-15 colon): > 100 µM | TGI (OVCAR-3 ovarian): > 100 µM | TGI (HL-60(TB) leukemia): > 100 µM | TGI (DLD-1 colon): > 100 µM | TGI (M19-MEL melanoma): > 100 µM | TGI (DMS 273 small cell lung): > 100 µM | TGI (OVCAR-4 ovarian): > 100 µM | TGI (LOX IMVI melanoma): > 100 µM | TGI (SK-MEL-5 melanoma): > 100 µM | TGI (NCI-H460 lung): > 100 µM | TGI (SNB-78 CNS): > 100 µM | TGI (UO-31 renal): > 100 µM | TGI (COLO 205 colon): > 100 µM | TGI (NCI-H23 lung): > 100 µM | TGI (K-562 leukemia): > 100 µM | TGI (DMS 114 small cell lung): > 100 µM | TGI (SK-MEL-28 melanoma): > 100 µM | TGI (SR leukemia): > 100 µM | TGI (CAKI-1 renal): > 100 µM | TGI (HCT-116 colon): > 100 µM | TGI (UACC-257 melanoma): > 100 µM | TGI (SN12C renal): > 100 µM | TGI (HOP-92 NSCLC): > 100 µM | TGI (OVCAR-8 ovarian): > 100 µM | TGI (HOP-62 NSCLC): > 100 µM | TGI (TK-10 renal): > 100 µM | TGI (KM12 colon): > 100 µM | TGI (RPMI-8226 leukemia): > 100 µM | TGI (NCI-H522 lung): > 100 µM | TGI (U251 CNS): > 100 µM | TGI (SNB-19 CNS): > 100 µM | TGI (XF 498 CNS): > 100 µM | TGI (M14 melanoma): > 100 µM | TGI (CCRF-CEM leukemia): > 100 µM | TGI (SF-268 CNS): > 100 µM | TGI (MOLT-4 leukemia): > 100 µM | TGI (SW-620 colon): > 100 µM | TGI (IGROV1 ovarian): > 100 µM | TGI (ACHN renal): > 100 µM | TGI (UACC-62 melanoma): > 100 µM | TGI (HT29 colon): > 100 µM | TGI (OVCAR-5 ovarian): > 100 µM | TGI (SK-OV-3 ovarian): > 100 µM | TGI (SNB-75 CNS): > 100 µM | TGI (MALME-3M melanoma): > 100 µM
